This is an account of results in patent USRE47689E1, “Compounds for treating spinal muscular atrophy” (PTC Therapeutics, Inc., priority 2011, dated 2019).

A word on the melting point: it is the temperature, or range, at which the solid turns liquid.

Read-outs that look alike come from different tables or passages of the source.

Data set [1] concerns SMN2 minigene (full length SMN2 minigene mRNA containing SMN2 exon 7). Put plainly: SMN2 minigene mRNA splicing RT-qPCR assay in cultured cells. It counts as cell-based, human. To be noted: Homo sapiens, HEK293-H, read-out: EC1.5x for production of full length SMN2 mRNA. The procedure, abridged:
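HEK293H cells stably carrying the SMN2-A minigene treated 24 h at 37° C with compound (DMSO, 200× stock), then lysed. Multiplex RT-qPCR (SMN primers 0.4 μM final; 40 cycles) measures full-length exon 7-containing minigene mRNA, normalized to GAPDH and to vehicle; EC1.5x derived and binned by stars.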

A further data set has as its system Smn protein. Kind of data set: Smn protein assay in cultured cells (SMN HTRF). It is filed as cell-based, human. The note with it: for EC1.5x (concentration giving 1.5-fold Smn protein increase): read-out: EC1.5x for Smn protein expression. The procedure, abridged: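 Lysates in RIPA with protease inhibitors are incubated overnight at room temperature with HTRF anti-SMN antibodies. EC1.5x is derived from fold increase in ΔF over vehicle.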
On the technique in general: Time-resolved FRET reads energy transfer from a long-lived donor to a nearby acceptor.

Where [2] appears, read: HEK293H cells stably transfected with SMN2-A minigene, 24 hours, 7-point concentration curve, 1.5-fold relative to vehicle-treated cells.
Where [3] appears, read: SMA patient fibroblast cells, 48 hours, 7-point concentration data, fold increase relative to vehicle control (SMN HTRF).
The mark [4] stands for this setting: SMA Type 1 patient fibroblast cells (GM03813), 48 hours, 7-point concentration curve, SMN HTRF, concentration producing 1.5 times Smn protein vs DMSO vehicle control.

`CCc1ccn2cc(-c3cc4ccc(N5CCCN(C)CC5)cc4oc3=O)nc2c1` [Compound 333, 3-(7-ethylimidazo[1,2-a]pyridin-2-yl)-7-(4-methyl-1,4-diazepan-1-yl)-2H-chromen-2-one] came in with a melting point of 181 to 187 °C. Moreover, in data set [1] (setting [2]), the EC (1.5-fold) is 0.3 to 1 µM. The “maximum fold (Fold) increase of Smn protein” value (from here on “maximum fold (Fold) increase”) with Smn protein (setting [3]) was “* (maximum fold increase of ≤1.2)”.
`Cc1ccn2cc(-c3cc4ccc(NCCN(C)C)cc4oc3=O)nc2c1` [Compound 470, 7-{[2-(dimethylamino)ethyl]amino}-3-(7-methylimidazo[1,2-a]pyridin-2-yl)-2H-chromen-2-one] yielded a melting point of 156 to 159 °C. In data set [1] (setting [2]), the EC (1.5-fold) lay in the range of 1 to 3 µM. For the same compound, the “maximum fold (Fold) increase” value in the data set with Smn protein (setting [3]) is given as “* (maximum fold increase of ≤1.2)”.
Take `CN1CCCN(c2ccc3cc(-c4cn5cccc(C(F)(F)F)c5n4)c(=O)oc3c2)CC1` [Compound 293, 7-(4-methyl-1,4-diazepan-1-yl)-3-[8-(trifluoromethyl)imidazo[1,2-a]pyridin-2-yl]-2H-chromen-2-one]: the melting point fell in the range of 196 to 199 °C. In data set [1] (setting [2]), the EC (1.5-fold) was in the range of 0.3 to 1 µM. Further, the “maximum fold (Fold) increase” value with Smn protein (setting [3]) was “* (maximum fold increase of ≤1.2)”.
`Cc1ccc2nc(-c3cc4ccc(CN(C)CCO)cc4oc3=O)cn2c1` [Cpd 148, 7-{[(2-hydroxyethyl)(methyl)amino]methyl}-3-(6-methylimidazo[1,2-a]pyridin-2-yl)-2H-chromen-2-one] returned a melting point of 166 to 169 °C. Moreover, the EC (1.5-fold) in data set [1] (setting [2]) lay within 3 to 30 µM. Further, the EC1.5x (concentration giving 1.5-fold Smn protein increase) in the data set with Smn protein (setting [4]) was in the range of 1000 to 3000 nM. Also, the “maximum fold (Fold) increase” value with Smn protein (setting [3]) is reported as “***** (fold increase >1.65)”.
Compound `CCN1CCC(F)(c2ccc3cc(-c4cn5cc(C)nc(C)c5n4)c(=O)oc3c2)CC1` [Cpd 958, 3-(6,8-dimethylimidazo[1,2-a]pyrazin-2-yl)-7-(1-ethyl-4-fluoropiperidin-4-yl)-2H-chromen-2-one] had a melting point of 162 to 164 °C. The EC (1.5-fold) in data set [1] (24 h) is below 0.1 µM. Further, in the data set on Smn protein, the “maximum fold (Fold) increase” value is “***** (key: *: maximum fold increase of ≤1.2; **: fold increase between >1.2 and ≤1.35; ***: fold increase between >1.35 and ≤1.5; ****: fold increase between >1.5 and ≤1.65; *****: fold increase >1.65)”; the EC1.5x (concentration giving 1.5-fold Smn protein increase) is below 300 nM.
With `Cc1cn2cc(-c3cc4ccc(N5CCN(CCF)[C@@H](C)C5)cc4oc3=O)nc2c(C)n1` [Compound 894, 3-(6,8-dimethylimidazo[1,2-a]pyrazin-2-yl)-7-[(3S)-4-(2-fluoroethyl)-3-methylpiperazin-1-yl]-2H-chromen-2-one], the melting point lay in the range of 192 to 195 °C. Moreover, the EC (1.5-fold) in data set [1] (setting [2]) was below 0.1 µM. For the same compound, in the data set on Smn protein (setting [4]), the EC1.5x (concentration giving 1.5-fold Smn protein increase) lay within 300 to 1000 nM. Further, the “maximum fold (Fold) increase” value in the data set on Smn protein (setting [3]) is reported as “***** (fold increase >1.65)”.
In turn, `Cc1cn2cc(-c3cc4ccc(N5CC(CN(C)C)C5)cc4oc3=O)nc2c(C)n1` [Compound 966, 7-{3-[(dimethylamino)methyl]azetidin-1-yl}-3-(6,8-dimethylimidazo[1,2-a]pyrazin-2-yl)-2H-chromen-2-one] came in with a melting point of 150 to 152 °C. In addition, the EC (1.5-fold) in data set [1] (setting [2]) is below 0.1 µM. Moreover, the EC1.5x (concentration giving 1.5-fold Smn protein increase) with Smn protein (setting [4]) is below 300 nM. Further, in the data set with Smn protein (setting [3]), the “maximum fold (Fold) increase” value was “**** (fold increase between >1.5 and ≤1.65)”.
Take `Cc1cn2cc(-c3cc4ccc(N5CCN(C(C)C)CC5)cc4oc3=O)cc2cn1` [Compound 692, 3-(3-methylpyrrolo[1,2-a]pyrazin-7-yl)-7-[4-(propan-2-yl)piperazin-1-yl]-2H-chromen-2-one]: the melting point was in the range of 221 to 225 °C. Further, the EC (1.5-fold) in data set [1] (setting [2]) was below 0.1 µM. Moreover, the EC1.5x (concentration giving 1.5-fold Smn protein increase) in the data set with Smn protein (setting [4]) was below 300 nM. Besides, in the data set with Smn protein (setting [3]), the “maximum fold (Fold) increase” value was “**** (fold increase between >1.5 and ≤1.65)”.
With `Cc1cn2cc(-c3cc4ccc(NC5CCNCC5)cc4oc3=O)nc2c(C)n1` [Compound 562, 3-(6,8-dimethylimidazo[1,2-a]pyrazin-2-yl)-7-(piperidin-4-ylamino)-2H-chromen-2-one], the melting point is 255 to 261 °C. Further, the EC (1.5-fold) in data set [1] (setting [2]) is below 0.1 µM. Besides, the EC1.5x (concentration giving 1.5-fold Smn protein increase) with Smn protein (setting [4]) was below 300 nM. Moreover, the “maximum fold (Fold) increase” value in the data set on Smn protein (setting [3]) was “**** (fold increase between >1.5 and ≤1.65)”.
Compound `CCN(CC)C1CCN(c2ccc3cc(-c4cc5c(C)nc(C)cn5c4)c(=O)oc3c2)C1` (centres unmarked) [Compound 735, 7-[3-(diethylamino)pyrrolidin-1-yl]-3-(1,3-dimethylpyrrolo[1,2-a]pyrazin-7-yl)-2H-chromen-2-one] gave a melting point of 165 to 168 °C. For the same compound, the EC (1.5-fold) in data set [1] (setting [2]) is below 0.1 µM. Besides, the EC1.5x (concentration giving 1.5-fold Smn protein increase) in the data set with Smn protein (setting [4]) fell in the range of 300 to 1000 nM. The “maximum fold (Fold) increase” value in the data set on Smn protein (setting [3]) is “**** (fold increase between >1.5 and ≤1.65)”.
In the case of `C[C@@H]1CN(c2cc(F)c3cc(-c4cn5cccc(Cl)c5n4)c(=O)oc3c2)CCN1` [Compound 390, 3-(8-chloroimidazo[1,2-a]pyridin-2-yl)-5-fluoro-7-[(3R)-3-methylpiperazin-1-yl]-2H-chromen-2-one], the melting point lay in the range of 266 to 276 °C. In data set [1] (setting [2]), the EC (1.5-fold) is 0.1 to 0.3 µM. For the same compound, the “maximum fold (Fold) increase” value in the data set on Smn protein (setting [3]) was “*** (fold increase between >1.35 and ≤1.5)”.
`CN1CCN(c2ccc3cc(-c4cn5cc(F)ccc5n4)c(=O)oc3c2)CC1` [Compound 138, 3-(6-fluoroimidazo[1,2-a]pyridin-2-yl)-7-(4-methylpiperazin-1-yl)-2H-chromen-2-one] came in with a melting point of 266 to 269 °C. In data set [1] (setting [2]), the EC (1.5-fold) fell in the range of 1 to 3 µM. Moreover, the “maximum fold (Fold) increase” value with Smn protein (setting [3]) is “** (fold increase between >1.2 and ≤1.35)”.
Turning to `CN(C)Cc1ccc2cc(-c3nc4ccccc4s3)c(=O)oc2c1` [Compound 13, 3-(1,3-benzothiazol-2-yl)-7-[(dimethylamino)methyl]-2H-chromen-2-one], the melting point fell in the range of 171 to 176 °C. The EC (1.5-fold) in data set [1] (setting [2]) lay in the range of 1 to 3 µM. In addition, in the data set with Smn protein (setting [3]), the “maximum fold (Fold) increase” value is “** (fold increase between >1.2 and ≤1.35)”.
Consider `Cc1cc2cc(-c3cc4ccc(N5CCN(C(C)C)CC5)cc4oc3=O)oc2c(C)n1` [Compound 789, 3-(5,7-dimethylfuro[2,3-c]pyridin-2-yl)-7-[4-(propan-2-yl)piperazin-1-yl]-2H-chromen-2-one], for which the melting point was 186 to 189 °C. The EC (1.5-fold) in data set [1] (setting [2]) was below 0.1 µM. In the data set with Smn protein (setting [3]), the “maximum fold (Fold) increase” value is “*** (fold increase between >1.35 and ≤1.5)”.
Consider `CCc1ccn2cc(-c3cc4ccc(N5CCN(C)CC5)cc4oc3=O)nc2c1` [Compound 288, 3-(7-ethylimidazo[1,2-a]pyridin-2-yl)-7-(4-methylpiperazin-1-yl)-2H-chromen-2-one], for which the melting point lay in the range of 203 to 211 °C. Further, the EC (1.5-fold) in data set [1] (setting [2]) lay in the range of 1 to 3 µM. Also, in the data set with Smn protein (setting [3]), the “maximum fold (Fold) increase” value was “* (maximum fold increase of ≤1.2)”.
Take `Cc1cc(F)c2nc(-c3cc4ccc(N5CCNC6(CCC6)C5)cc4oc3=O)cn2c1` [Compound 598, 7-(5,8-diazaspiro[3.5]non-8-yl)-3-(8-fluoro-6-methylimidazo[1,2-a]pyridin-2-yl)-2H-chromen-2-one]: the melting point fell in the range of 244 to 254 °C. The EC (1.5-fold) in data set [1] (setting [2]) was 0.1 to 0.3 µM. Further, the “maximum fold (Fold) increase” value in the data set on Smn protein (setting [3]) was “*** (fold increase between >1.35 and ≤1.5)”.
`Cc1cc(F)cn2cc(-c3cc4ccc(N5C[C@@H](C)N[C@@H](C)C5)cc4oc3=O)nc12` [Compound 331, 7-[(3R,5S)-3,5-dimethylpiperazin-1-yl]-3-(6-fluoro-8-methylimidazo[1,2-a]pyridin-2-yl)-2H-chromen-2-one] came in with a melting point of 290 to 300 °C. Besides, the EC (1.5-fold) in data set [1] (setting [2]) fell in the range of 0.3 to 1 µM. Besides, the “maximum fold (Fold) increase” value in the data set with Smn protein (setting [3]) is “* (maximum fold increase of ≤1.2)”.
Compound `CCNCCCc1ccc2cc(-c3cn4cc(C)nc(C)c4n3)c(=O)oc2c1` [Compound 926, 3-(6,8-dimethylimidazo[1,2-a]pyrazin-2-yl)-7-[3-(ethylamino)propyl]-2H-chromen-2-one] had a melting point of 184 to 186 °C. For the same compound, the EC (1.5-fold) in data set [1] (setting [2]) was below 0.1 µM. For the same compound, the EC1.5x (concentration giving 1.5-fold Smn protein increase) in the data set on Smn protein (setting [4]) was below 300 nM. In the data set on Smn protein (setting [3]), the “maximum fold (Fold) increase” value is “**** (fold increase between >1.5 and ≤1.65)”.
The compound `C[C@@H]1CN(c2ccc3cc(-c4cn5cc(C6CC6)cc(F)c5n4)c(=O)oc3c2)CCN1` [Compound 503, 3-(6-cyclopropyl-8-fluoroimidazo[1,2-a]pyridin-2-yl)-7-[(3R)-3-methylpiperazin-1-yl]-2H-chromen-2-one] had a melting point of 254 to 264 °C. Also, the EC (1.5-fold) in data set [1] (setting [2]) lay in the range of 0.3 to 1 µM. Besides, the “maximum fold (Fold) increase” value in the data set with Smn protein (setting [3]) is recorded as “* (maximum fold increase of ≤1.2)”.
On the same counts, the results for `O=c1oc2cc(CN3CCNCC3)ccc2cc1-c1nc2c(Cl)cccc2s1` [Compound 7, 3-(4-chloro-1,3-benzothiazol-2-yl)-7-(piperazin-1-ylmethyl)-2H-chromen-2-one] are 222 to 226 °C, 3 to 30 µM and “* (maximum fold increase of ≤1.2)”.
As for `Cc1nn2cc(-c3cc4ccc(N5CCNCC5)cc4oc3=O)nc2s1` [Cpd 441, 3-(2-methylimidazo[2,1-b][1,3,4]thiadiazol-6-yl)-7-(piperazin-1-yl)-2H-chromen-2-one], the melting point lay within 288 to 290 °C. For the same compound, the EC (1.5-fold) in data set [1] (setting [2]) was below 0.1 µM. In addition, the “maximum fold (Fold) increase” value in the data set on Smn protein (setting [3]) was “*** (fold increase between >1.35 and ≤1.5)”.
